Source: patent US20220194940A1, “HETEROCYCLIC INHIBITORS OF TYROSINE KINASE” (Board of Regents, The University of Texas System, priority 2019, published 2022)

What was measured:
Assay type in all cases: cell-based
EGFR A767insASV = EGFR A767insASV (Homo sapiens, UniProt P00533, cells depend on it, form not given); test: Ba/F3 cell viability, EGFR A767insASV; details: logarithm of IC50, second listing in Table 2 (r23)
Procedure: (§1) 72 hours after transduction, 2 μg/ml puromycin (Invitrogen) was added to the medium.

EGFR N771insSVDNR = biological target: T1, EGFR N771insSVDNR (Homo sapiens, UniProt P00533, INS771SVDNR); test: Ba/F3 cell viability, EGFR N771insSVDNR
T1 construct: expressed in transfected cells; host or cells: Ba/F3 (retroviral transduction, pBABE-Puro-based vectors)
T1 sequence (P00533 with tags, fused parts or gaps INS771SVDNR): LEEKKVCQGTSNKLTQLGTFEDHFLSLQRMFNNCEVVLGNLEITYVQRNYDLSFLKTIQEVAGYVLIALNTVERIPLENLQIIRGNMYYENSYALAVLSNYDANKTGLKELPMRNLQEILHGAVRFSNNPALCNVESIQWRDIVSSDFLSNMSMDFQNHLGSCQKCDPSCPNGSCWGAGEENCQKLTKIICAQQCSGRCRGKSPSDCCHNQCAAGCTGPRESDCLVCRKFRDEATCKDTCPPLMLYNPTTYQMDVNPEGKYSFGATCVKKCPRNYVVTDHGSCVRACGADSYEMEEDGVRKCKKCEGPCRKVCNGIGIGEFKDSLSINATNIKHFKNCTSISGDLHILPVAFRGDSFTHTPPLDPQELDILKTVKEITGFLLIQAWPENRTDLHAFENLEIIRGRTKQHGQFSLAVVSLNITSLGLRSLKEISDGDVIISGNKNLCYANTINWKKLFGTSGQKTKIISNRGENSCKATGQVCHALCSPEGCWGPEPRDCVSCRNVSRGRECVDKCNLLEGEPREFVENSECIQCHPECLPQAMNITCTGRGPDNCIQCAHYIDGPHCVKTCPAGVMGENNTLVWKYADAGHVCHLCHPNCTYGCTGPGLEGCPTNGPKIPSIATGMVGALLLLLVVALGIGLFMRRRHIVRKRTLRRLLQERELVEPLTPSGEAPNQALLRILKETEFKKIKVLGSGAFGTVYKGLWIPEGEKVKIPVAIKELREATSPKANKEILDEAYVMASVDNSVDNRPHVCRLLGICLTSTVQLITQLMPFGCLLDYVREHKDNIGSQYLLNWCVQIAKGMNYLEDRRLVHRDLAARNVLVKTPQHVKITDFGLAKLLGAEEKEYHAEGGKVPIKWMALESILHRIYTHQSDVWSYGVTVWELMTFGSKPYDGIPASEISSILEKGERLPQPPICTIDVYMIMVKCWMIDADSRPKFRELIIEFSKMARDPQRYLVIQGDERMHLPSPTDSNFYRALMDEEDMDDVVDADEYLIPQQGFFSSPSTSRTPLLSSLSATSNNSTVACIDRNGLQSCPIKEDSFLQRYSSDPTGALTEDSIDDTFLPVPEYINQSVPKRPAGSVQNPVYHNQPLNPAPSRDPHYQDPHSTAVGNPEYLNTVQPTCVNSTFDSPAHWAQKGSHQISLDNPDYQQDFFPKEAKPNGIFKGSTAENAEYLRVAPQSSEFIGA
Procedure: as §1

EGFR H773insAH = biological target: T2, EGFR H773insAH (Homo sapiens, UniProt P00533, INS773AH); test: Ba/F3 cell viability, EGFR H773insAH; details: logarithm of IC50
T2 construct: expressed in transfected cells; host or cells: Ba/F3 (retroviral transduction, pBABE-Puro-based vectors)
Procedure: as §1

EGFR A767insTLA = biological target: T3, EGFR A767insTLA (Homo sapiens, UniProt P00533, INS767TLA); test: Ba/F3 cell viability, EGFR A767insTLA; details: logarithm of IC50
T3 construct: expressed in transfected cells; host or cells: Ba/F3 (retroviral transduction, pBABE-Puro-based vectors)
Procedure: as §1

EGFR V769insGVV = biological target: T4, EGFR V769insGVV (Homo sapiens, UniProt P00533, INS769GVV); test: Ba/F3 cell viability, EGFR V769insGVV; details: logarithm of IC50
T4 construct: expressed in transfected cells; host or cells: Ba/F3 (retroviral transduction, pBABE-Puro-based vectors)
Procedure: as §1

EGFR D770insNPG/T790M = biological target: T5, EGFR D770insNPG/T790M (Homo sapiens, UniProt P00533, INS770NPG/T790M); test: Ba/F3 cell viability, EGFR D770insNPG/T790M; details: logarithm of IC50
T5 construct: expressed in transfected cells; host or cells: Ba/F3 (retroviral transduction, pBABE-Puro-based vectors)
Procedure: as §1

EGFR V769insMASVD = biological target: T6, EGFR V769insMASVD (Homo sapiens, UniProt P00533, INS769MASVD); test: Ba/F3 cell viability, EGFR V769insMASVD; details: logarithm of IC50
T6 construct: expressed in transfected cells; host or cells: Ba/F3 (retroviral transduction, pBABE-Puro-based vectors)
Procedure: as §1

EGFR N771insHH = biological target: T7, EGFR N771insHH (Homo sapiens, UniProt P00533, INS771HH); test: Ba/F3 cell viability, EGFR N771insHH; details: logarithm of IC50
T7 construct: expressed in transfected cells; host or cells: Ba/F3 (retroviral transduction, pBABE-Puro-based vectors)
Procedure: as §1

EGFR V769L = biological target: T8, EGFR V769L (Homo sapiens, UniProt P00533, V769L); test: Ba/F3 cell viability, EGFR V769L; details: logarithm of IC50
T8 construct: expressed in transfected cells; host or cells: Ba/F3 (retroviral transduction, pBABE-Puro-based vectors)
Procedure: as §1

EGFR P772insDNP = biological target: T9, EGFR P772insDNP (Homo sapiens, UniProt P00533, INS772DNP); test: Ba/F3 cell viability, EGFR P772insDNP; details: logarithm of IC50
T9 construct: expressed in transfected cells; host or cells: Ba/F3 (retroviral transduction, pBABE-Puro-based vectors)
Procedure: as §1

EGFR S768I T790M = biological target: T10, EGFR S768I T790M (Homo sapiens, UniProt P00533, S768I/T790M); test: Ba/F3 cell viability, EGFR S768I T790M; details: logarithm of IC50
T10 construct: expressed in transfected cells; host or cells: Ba/F3 (retroviral transduction, pBABE-Puro-based vectors)
Procedure: as §1

EGFR V769insGSV = biological target: T11, EGFR V769insGSV (Homo sapiens, UniProt P00533, INS769GSV); test: Ba/F3 cell viability, EGFR V769insGSV; details: logarithm of IC50
T11 construct: expressed in transfected cells; host or cells: Ba/F3 (retroviral transduction, pBABE-Puro-based vectors)
Procedure: as §1

EGFR H773L/V774M = biological target: T12, EGFR H773L/V774M (Homo sapiens, UniProt P00533, H773L/V774M); test: Ba/F3 cell viability, EGFR H773L/V774M; details: logarithm of IC50
T12 construct: expressed in transfected cells; host or cells: Ba/F3 (retroviral transduction, pBABE-Puro-based vectors)
Procedure: as §1

EGFR WT = biological target: T13, EGFR WT (Homo sapiens, UniProt P00533); test: Ba/F3 cell viability (Cell Titer Glo), WT EGFR
T13 construct: expressed in transfected cells; host or cells: Ba/F3 (retroviral transduction, pBABE-Puro-based vectors)
T13 sequence (P00533 25-1210): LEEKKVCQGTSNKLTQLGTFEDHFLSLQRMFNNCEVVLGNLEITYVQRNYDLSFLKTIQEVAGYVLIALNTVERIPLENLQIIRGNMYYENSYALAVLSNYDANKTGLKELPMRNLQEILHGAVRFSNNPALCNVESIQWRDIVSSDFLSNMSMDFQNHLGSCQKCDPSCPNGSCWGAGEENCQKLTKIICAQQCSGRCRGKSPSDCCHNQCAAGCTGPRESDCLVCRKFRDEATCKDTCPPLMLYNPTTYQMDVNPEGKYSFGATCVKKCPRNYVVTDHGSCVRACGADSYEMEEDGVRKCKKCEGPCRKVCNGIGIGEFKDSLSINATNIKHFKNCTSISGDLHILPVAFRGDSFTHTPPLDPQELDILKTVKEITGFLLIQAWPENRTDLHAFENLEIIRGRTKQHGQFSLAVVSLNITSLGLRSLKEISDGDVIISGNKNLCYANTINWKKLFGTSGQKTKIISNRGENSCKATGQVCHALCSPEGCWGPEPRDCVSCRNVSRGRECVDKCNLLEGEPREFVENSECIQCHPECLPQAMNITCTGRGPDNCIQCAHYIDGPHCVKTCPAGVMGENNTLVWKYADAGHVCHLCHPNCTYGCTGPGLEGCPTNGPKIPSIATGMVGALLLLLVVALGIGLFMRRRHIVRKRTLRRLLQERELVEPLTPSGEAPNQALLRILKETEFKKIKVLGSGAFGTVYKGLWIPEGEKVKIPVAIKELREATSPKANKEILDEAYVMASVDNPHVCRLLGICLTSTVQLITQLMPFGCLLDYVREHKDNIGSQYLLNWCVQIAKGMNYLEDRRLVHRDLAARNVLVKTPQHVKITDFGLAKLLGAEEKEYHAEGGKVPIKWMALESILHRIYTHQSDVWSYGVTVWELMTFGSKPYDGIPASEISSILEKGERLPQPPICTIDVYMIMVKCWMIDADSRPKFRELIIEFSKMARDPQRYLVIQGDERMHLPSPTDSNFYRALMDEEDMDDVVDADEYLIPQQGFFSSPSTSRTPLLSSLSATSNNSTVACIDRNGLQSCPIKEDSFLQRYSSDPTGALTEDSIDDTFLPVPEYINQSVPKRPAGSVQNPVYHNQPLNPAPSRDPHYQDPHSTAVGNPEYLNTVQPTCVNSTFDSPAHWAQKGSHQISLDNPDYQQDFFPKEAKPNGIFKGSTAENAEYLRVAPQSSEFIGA
Procedure: as §1

EGFR D770insNPG/C797S = biological target: T14, EGFR D770insNPG/C797S (Homo sapiens, UniProt P00533, C797S/INS770NPG); test: Ba/F3 cell viability, EGFR D770insNPG/C797S; details: logarithm of IC50
T14 construct: expressed in transfected cells; host or cells: Ba/F3 (retroviral transduction, pBABE-Puro-based vectors)
T14 sequence (P00533 with tags, fused parts or gaps INS770NPG/C797S): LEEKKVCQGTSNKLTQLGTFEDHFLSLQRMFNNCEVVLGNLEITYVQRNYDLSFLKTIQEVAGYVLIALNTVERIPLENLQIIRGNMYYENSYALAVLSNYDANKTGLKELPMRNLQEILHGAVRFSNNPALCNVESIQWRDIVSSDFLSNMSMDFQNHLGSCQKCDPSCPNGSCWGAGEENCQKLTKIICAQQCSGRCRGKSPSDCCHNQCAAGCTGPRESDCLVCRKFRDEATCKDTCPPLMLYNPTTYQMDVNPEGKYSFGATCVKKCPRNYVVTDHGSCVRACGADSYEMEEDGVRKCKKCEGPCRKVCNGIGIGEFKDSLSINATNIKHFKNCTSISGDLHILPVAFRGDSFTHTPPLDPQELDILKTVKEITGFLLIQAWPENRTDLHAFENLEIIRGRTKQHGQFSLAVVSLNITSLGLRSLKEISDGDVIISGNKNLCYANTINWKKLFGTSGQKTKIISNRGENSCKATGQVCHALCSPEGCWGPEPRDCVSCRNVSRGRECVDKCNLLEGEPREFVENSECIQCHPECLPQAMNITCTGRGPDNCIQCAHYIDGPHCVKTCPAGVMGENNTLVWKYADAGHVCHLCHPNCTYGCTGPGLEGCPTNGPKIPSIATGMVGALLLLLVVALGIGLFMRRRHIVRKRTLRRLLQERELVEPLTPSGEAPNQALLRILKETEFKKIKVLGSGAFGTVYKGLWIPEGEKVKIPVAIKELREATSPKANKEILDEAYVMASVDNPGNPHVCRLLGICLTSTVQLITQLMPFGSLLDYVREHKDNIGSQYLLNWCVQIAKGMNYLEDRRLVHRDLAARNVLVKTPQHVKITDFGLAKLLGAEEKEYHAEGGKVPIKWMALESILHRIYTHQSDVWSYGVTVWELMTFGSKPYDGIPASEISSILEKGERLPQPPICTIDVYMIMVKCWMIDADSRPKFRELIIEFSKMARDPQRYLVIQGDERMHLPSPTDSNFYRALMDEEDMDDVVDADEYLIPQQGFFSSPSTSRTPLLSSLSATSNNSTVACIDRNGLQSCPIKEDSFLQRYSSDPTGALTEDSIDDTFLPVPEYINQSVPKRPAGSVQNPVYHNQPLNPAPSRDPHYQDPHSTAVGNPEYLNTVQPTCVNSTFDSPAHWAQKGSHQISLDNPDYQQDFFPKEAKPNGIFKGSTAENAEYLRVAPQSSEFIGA
Procedure: as §1

EGFR S768dupSVD/C797S = biological target: T15, EGFR S768dupSVD/C797S (Homo sapiens, UniProt P00533, C797S/DUP768-770); test: Ba/F3 cell viability, EGFR S768dupSVD/C797S; details: logarithm of IC50
T15 construct: expressed in transfected cells; host or cells: Ba/F3 (retroviral transduction, pBABE-Puro-based vectors)
Procedure: as §1

EGFR D770del insGY = biological target: T16, EGFR D770del insGY (Homo sapiens, UniProt P00533, D770Y/INS769G); test: Ba/F3 cell viability, EGFR D770del insGY; details: logarithm of IC50
T16 construct: expressed in transfected cells; host or cells: Ba/F3 (retroviral transduction, pBABE-Puro-based vectors)
T16 sequence (P00533 with tags, fused parts or gaps INS769G/D770Y): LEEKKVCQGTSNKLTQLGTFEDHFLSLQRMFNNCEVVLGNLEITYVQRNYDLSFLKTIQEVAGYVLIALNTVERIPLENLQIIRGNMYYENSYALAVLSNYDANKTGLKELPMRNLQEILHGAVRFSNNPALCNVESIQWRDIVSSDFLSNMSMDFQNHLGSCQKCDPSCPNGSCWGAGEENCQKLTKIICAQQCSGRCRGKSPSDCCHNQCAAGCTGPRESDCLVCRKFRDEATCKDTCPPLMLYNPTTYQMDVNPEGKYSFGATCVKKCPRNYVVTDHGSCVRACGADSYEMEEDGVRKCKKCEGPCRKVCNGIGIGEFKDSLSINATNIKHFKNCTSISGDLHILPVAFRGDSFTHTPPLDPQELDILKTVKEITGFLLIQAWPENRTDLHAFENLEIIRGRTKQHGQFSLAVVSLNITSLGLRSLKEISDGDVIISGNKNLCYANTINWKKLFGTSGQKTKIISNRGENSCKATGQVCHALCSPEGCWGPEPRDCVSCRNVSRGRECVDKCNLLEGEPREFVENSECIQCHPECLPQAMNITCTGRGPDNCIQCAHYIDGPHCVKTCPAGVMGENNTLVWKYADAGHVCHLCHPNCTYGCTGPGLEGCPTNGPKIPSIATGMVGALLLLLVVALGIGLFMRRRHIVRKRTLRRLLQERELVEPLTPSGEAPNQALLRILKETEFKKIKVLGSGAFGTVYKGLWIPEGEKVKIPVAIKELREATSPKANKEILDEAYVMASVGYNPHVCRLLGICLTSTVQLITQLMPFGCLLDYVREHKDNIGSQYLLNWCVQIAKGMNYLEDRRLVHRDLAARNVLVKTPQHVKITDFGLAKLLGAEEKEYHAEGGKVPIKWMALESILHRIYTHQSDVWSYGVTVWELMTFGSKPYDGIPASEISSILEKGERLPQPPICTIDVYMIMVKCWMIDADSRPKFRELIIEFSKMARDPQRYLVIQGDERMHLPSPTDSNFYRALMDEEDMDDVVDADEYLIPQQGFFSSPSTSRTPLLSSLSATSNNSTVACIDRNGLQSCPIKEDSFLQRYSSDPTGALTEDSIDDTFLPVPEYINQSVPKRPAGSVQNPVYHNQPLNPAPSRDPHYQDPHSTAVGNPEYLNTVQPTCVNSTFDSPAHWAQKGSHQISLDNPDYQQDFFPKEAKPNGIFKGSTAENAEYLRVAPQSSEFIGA
Procedure: as §1

EGFR S768dupSVD/T790M = biological target: T17, EGFR S768dupSVD/T790M (Homo sapiens, UniProt P00533, DUP768-770/T790M); test: Ba/F3 cell viability, EGFR S768dupSVD/T790M; details: logarithm of IC50
T17 construct: expressed in transfected cells; host or cells: Ba/F3 (retroviral transduction, pBABE-Puro-based vectors)
Procedure: as §1

Compound | Log(IC50, nM) (EGFR A767insASV) [nM] | Log(IC50, nM) (EGFR N771insSVDNR; logarithm of IC50, first listing in Table 2 (r10)) | Log(IC50, nM) (EGFR N771insSVDNR; logarithm of IC50, second listing in Table 2 (r26)) | Log(IC50, nM) (EGFR H773insAH) | Log(IC50, nM) (EGFR A767insTLA) | Log(IC50, nM) (EGFR V769insGVV) | Log(IC50, nM) (EGFR D770insNPG/T790M) | Log(IC50, nM) (EGFR V769insMASVD) | Log(IC50, nM) (EGFR N771insHH) | Log(IC50, nM) (EGFR V769L) | Log(IC50, nM) (EGFR P772insDNP) | Log(IC50, nM) (EGFR S768I T790M) | Log(IC50, nM) (EGFR V769insGSV) | Log(IC50, nM) (EGFR H773L/V774M) | Log(IC50, nM) (EGFR WT; Ba/F3 EGFR WT, comparison line of Table 3) | Log(IC50, nM) (EGFR WT; logarithm of IC50, Ba/F3 cells expressing EGFR WT, Cell Titer Glo, 3 days, Table 2) | Log(IC50, nM) (EGFR D770insNPG/C797S) | Log(IC50, nM) (EGFR S768dupSVD/C797S) | Log(IC50, nM) (EGFR D770del insGY) | Log(IC50, nM) (EGFR S768dupSVD/T790M)
CN(C)C/C=C/C(=O)Nc1cc2c(Nc3ccc(Cl)c(Br)c3)ncnc2cn1 [Example 1, (E)-N-(4-((3-Bromo-4-chlorophenyl)amino)pyrido[3,4-d]pyrimidin-6-yl)-4-(dimethylamino)but-2-enamide] | 0.55 | – | – | – | – | – | – | – | – | – | – | – | – | – | – | – | – | – | – | –
CN(C)C/C=C/C(=O)Nc1cc2c(Nc3ccc(Cl)c(Cl)c3)ncnc2cn1 [Example 2, (E)-N-(4-((3,4-dichlorophenyl)amino)pyrido[3,4-d]pyrimidin-6-yl)-4-(dimethylamino)but-2-enamide] | 0.51 | 0.98 log(nM) | 1.08 log(nM) | 0.88 log10(nM) | 0.83 log(nM) | 1.40 log(nM) | 2.40 log10(nM) | 0.88 log10(nM) | 0.33 log10(nM) | 0.98 log(nM) | 0.94 log(nM) | 0.81 log10(nM) | 0.98 log(nM) | 1.41 log(nM) | 1.03 log(nM) | 1.03 log(nM) | 2.73 log10(nM) | 3.06 log(nM) | 0.71 log10(nM) | 2.73 log10(nM)
